Assay results: patent US10006080B2, “High-selectivity contact activation inhibitor based on infestin-4” (OBSCHESTVO S OGRANICHENNOY OTVETSTVENNOSTYU …, priority 2013, dated 2018)

B1: corn trypsin inhibitor (other, UniProt P01088 29-138, looked up)
chain: SAGTSCVPGWAIPHNPLPSCRWYVTSRTCGIGPRLPWPELKRRCCRELADIPAYCRCTALSILMDGAIPPGPDAQLEGRLEDLPGCPREVQRGFAATLVTEAECNLATIS
notes: Isolated from corn; also called CTI

Experiments:
contact activation = assay: Thrombodynamics analyzer T-2, artifact clots far from the TF activator in normal frozen-thawed PFP; format: biochemical, human; details: MutB 20 μM, CTI 15 μM; for cuvette area occupied by artifact clots far from the activator: 30 minutes after activation, whole cuvette area without inhibitor; for suppression of contact activation, formation of artifact clots: 30 minutes after assay start, n=4
Method: The assay included the following steps: thawing of a frozen PFP sample, adding to it of a contact activation inhibitor and incubating the resulting mixture, sample recalcification and its placing into the measuring cuvette channel, bringing the sample into contact with the TF immobilized at the end of a special insert-activator, and detecting the appearance and growth of fibrin clots in the consequent photography mode. The frozen PFP sample was obtained preliminarily through collection of blood into sodium citrate-containing tubes from several (at least five) healthy donors and subsequent 2 stages of centrifugation and freezing of the prepared plasma at −80° C. During the assay arrangement, the fibrin clot was growing from the insert-activator; appearance of additional clots in the cuvette area far from the activator was also possible, as shown on FIG. 2. Clots in the cuvette area far from the activator can be due to the hypercoagulation state of the sample or to the artifacts of sample contact activation from the cuvette walls (artifact clots): the latter must be suppressed for the said test to allow distinguishing between the normal and hypercoagulation states of the coagulation system. To do that, before activating the sample through bringing it into contact with TF, an efficient quantity of the contact activation inhibitor was added into the sample: in this case, we used the polypeptide comprising the sequence of an infestin-4 mutant MutB. To compare the efficiency of the claimed polypeptide comprising the sequence of an infestin-4 mutant MutB with the contact activation inhibitor CTI known in the field, the said inhibitors were added into 2 separate samples of normal frozen PFP plasma. We used such concentrations of the inhibitors at which the APTT increases nearly four-fold: 20 μM in case of MutB and 15 μM in case of CTI. […] For each sample, 4 repeated measurements were performed. 30 minutes after the assay start, images of the fibrin clot in measuring cuvettes-4 cuvettes for each sample-were obtained: they are shown on FIG. 3.
The cuvette area occupied by artifact clots (in % from the total cuvette area; n=4) was plotted for 3 samples of normal frozen plasma at separate time points (FIG. 4, averaged values at each time point). Without adding the contact activation inhibitor, artifact clots appear in the cuvette area far from the activator nearly 15 minutes after activation and occupy the whole cuvette area after 30 minutes. However, after addition of CTI or MutB, such clots occupy not more than 15% of the cuvette area 30 minutes after activation. […]

[1] = tested on: TF-initiated fibrin clot growth; assay: Thrombodynamics analyzer T-2, fibrin clot growth from immobilized TF in normal and hypocoagulant PFP (0.1 IU/ml heparin); format: biochemical, human; details: MutB 20 μM, CTI 15 μM; n=4
Method: The influence of contact activation inhibitors on coagulation dynamics can be shown on the example of fibrin clot growth from the surface with immobilized TF. The dynamics of fibrin clot growth from the activator can be characterized by the following parameters: delay of clot formation after the contact of plasma with the tissue factor—lag time (Tlag, min); average clot growth velocity within 2-6 minutes after the start of coagulation—initial velocity (Vin, μm/min); and average clot growth velocity within 15-25 minutes after the start of coagulation—stationary velocity (Vst, μm/min) (Balandina et al. 2011, Biophys. J. 101:1816-1824; Dashkevich et at 2012, Biophys. J. 103:2233-2240). The mentioned parameters allow determining the state of blood coagulation of the subjects from whom the test samples were obtained («Practical coagulology», M A Panteleev, S A Vasilyev, E I Sinauridze and co-authors, ed. by A I Vorobyov. Moscow, publishing house «Practical medicine», 2011, 192 pages., ISBN: 978-5-98811-165-8). […]

Molecule	cuvette area occupied by artifact clots far from the activator (contact activation)	suppression of contact activation, formation of artifact clots (contact activation)	influence on the difference of fibrin clot growth dynamics between hypocoagulant and normal plasma [1]
MutB: polypeptide comprising the sequence of infestin-4 mutant MutB (SEQ ID NO: 1), inhibition loop TRNFVA; high-selectivity fXIIa inhibitor (EVRNPCACTRNFVAVCGSDGKTYGNPCMLNCAAQTKVPGLKLVHEGRCQRSNVEQF; Infestin-4 mutant MutB)	not more than 15%	almost complete suppression	does not have any influence
B1	not more than 15%	almost complete suppression	does not have any influence
